For three compounds, IC50 results are on record in publication PMC3393770 (Chembiochem, 2012).

The target of the assay is T1, Saccharomyces cerevisiae 20S proteasome, β5 subunit (chymotrypsin-like activity) (Saccharomyces cerevisiae, UniProt P23724+P30656).
T1 sequence (P30656 76-287): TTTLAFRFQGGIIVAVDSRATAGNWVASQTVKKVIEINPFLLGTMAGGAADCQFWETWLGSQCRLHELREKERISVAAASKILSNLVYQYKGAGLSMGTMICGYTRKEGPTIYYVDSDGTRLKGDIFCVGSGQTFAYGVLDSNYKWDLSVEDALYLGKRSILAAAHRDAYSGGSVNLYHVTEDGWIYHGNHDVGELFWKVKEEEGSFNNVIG
T1 sequence (P23724 20-241): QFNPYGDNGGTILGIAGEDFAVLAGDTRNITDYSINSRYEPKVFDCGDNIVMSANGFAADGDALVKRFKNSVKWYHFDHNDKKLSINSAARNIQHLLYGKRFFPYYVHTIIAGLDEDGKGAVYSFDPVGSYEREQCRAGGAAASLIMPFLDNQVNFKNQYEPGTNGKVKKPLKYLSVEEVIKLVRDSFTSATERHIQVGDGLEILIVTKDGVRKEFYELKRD
Put plainly: […] proteasome β[…]. It is filed as biochemical.

The mark [1] stands for this setting: read-out: Proteasome Inhibition(IC50), chymotrypsin-like site, 0.5 μg/mL proteasome, covalent (α,β-epoxyketone, Thr1).

Read-outs that look alike come from different tables or passages of the source.

By IC50 is commonly meant the concentration that inhibits the measured activity by half. In the case of `CCCCCC(=O)N[C@H](C(=O)N[C@@H](CC[S+](C)[O-])C(=O)N[C@@H](CC(C)C)C(=O)[C@@]1(C)CO1)C(C)C` (mixture of isomers) [compound 1, carmaphycin A], under setting [1], the IC50 came out at 2.5 ± 0.3 nM.

Take `CCCCCC(=O)N[C@H](C(=O)N[C@@H](CCS(C)(=O)=O)C(=O)N[C@@H](CC(C)C)C(=O)[C@@]1(C)CO1)C(C)C` [compound 2, carmaphycin B]: under setting [1], the IC50 is 2.6 ± 0.9 nM.

Compound `C[C@@]12OC(=O)[C@]1([C@@H](O)[C@@H]1C=CCCC1)NC(=O)[C@@H]2CCCl` [compound 11, salinosporamide A] yielded a half-maximal inhibitory concentration (IC50) of 1.4 ± 0.2 nM.
